The numbers were not newly measured in patent US7747395B2, “Method of inhibitor design and identification using a 3-D structure of human peptide deformylase” (Sloan-Kettering Institute for Cancer Research, priority 2007, dated 2010), which cites them from elsewhere.

SMILES strings stand for the structures.

The series deals with drug resistant bacterial strains. As to conditions: cited from earlier work.

With `CC(C)(C)[C@H](NC(=O)[C@H](CC1CCCC1)CN(O)C=O)C(=O)N1CCN(Cc2ccc3c(c2)OCO3)CC1` [BB-83698], the “antibacterial activity in vitro” value is “broad spectrum activity in vitro against drug resistant bacterial strains”.
